Test results published in US7498445B2, “Thiazole-based nitric oxide donors capable of releasing two or more nitric oxide molecules and uses thereof” (priority 2004, dated 2009).
“Also recorded” adds a separate entry of the source.

Experiments:
[1] = tested on: c-GMP in slices of thoracic aorta of rats; test: Cyclic-GMP measurement in aortic rat tissue (radioimmunoassay); format: cell-based; settings: isolated rat aorta; FIGS. 25, 27, 33; in words
Protocol: GTN (10^−6 M) was added to the chamber and, 1 minute after exposure to the drug, rings (usually 3-5) were taken, wrapped with aluminum foil and immediately frozen in liquid nitrogen for storage. Control sample group was treated with the vehicle solution only. At the time of analysis, rings were thawed, blotted over a dry gauzed and weighted. A known weight of tissue was homogenized in 2 ml ice-cold modified Hank's balanced salt solution containing (in gram/liter) NaCl 8; KCl 0.4; glucose 1; KH2PO4 0.06; Na2HPO4 0.047; Phenol red 0.017 and further containing 25 mM EDTA (disodium salt). The homogenate was centrifuged at 4000 g (force units) for 10 minutes at 2-4° C. and the supernatant was thereafter transferred into fresh pre-cooled test tube containing 1 ml of acetonitrile. The tubes were vortex mixed for a few seconds and subsequently centrifuged at 4000 g for 5 minutes at 2-4° C., to remove the precipitated protein. Each supernatant was transferred into a clean test tube and evaporated to dryness under a stream of nitrogen at 55° C. The dry residue was reconstituted with 10 volumes of Tris-EDTA buffer pH 7.5 (0.05 M Tris containing 4 mM EDTA). Aliquots of 100 μl of the reconstituted solution in duplicate were used for c-GMP measurements using Amersham RIA kit, as is described in Haj-Yehia & Benet [Pharmacology, 1995, 273, 1, pp. 94-100]. Standard curves were plotted with six concentrations (0, 0.5, 1, 2, 4 and 8 pmoles of c-GMP per tube).
The NO-tolerance effect of GTN and NO-donor compounds according to the present invention was measured by following the production of c-GMP in slices of thoracic aorta of rats. Thus, the production of c-GMP was measured as described in the methods section above for the reference NO-donor compound GTN, and for the NO-donors of the present invention Pet-2, Pet-3, Pet-7, Pet-8, Pet-10, Pet-12, Pet-24, Pet-59, Pet-147, Pet-149, Pet-152, Pet-154 and Pet-155.

[2] = tested on: isolated rat aorta; test: In vitro vasorelaxation of epinephrine-contracted rat aortic rings (CCRC); format: cell-based; settings: isolated rat aorta pre-treated in vitro with 1 μM epinephrine; for vasorelaxation effect as compared with glyceryltrinitrate: in words
Source text: Male Sprague Dawley rats were anaesthetized using intraperitoneal injection of ketamine and xylazine (50 and 10 milligram per kilogram, respectively) and the thoracic aorta, the large upper portion of the descending aorta, starting at the caudal border of the chest bone, was removed thereafter, while carefully removing the paraadventetial tissue surrounding the vessel. Aortae were cut into rings of 4-5 millimeters and mounted onto the tissue path. The path buffer (Krebs-bicrbonate) was constantly gassed with carbogen and maintained at 37° C. The rings were preloaded under 2 g tension and equilibrated for 90 minutes, while refreshing the buffer every 15 minutes. After stabilization, the rings were contracted with epinephrine (1 μM). Cumulative Concentration—Response Curves (CCRC) were measured for the vasorelaxing effect induced by adding various concentrations, ranging from 10^−10 M to 10^−5 M of Pet-2, Pet-3, Pet-7, Pet-8, Pet-12, Pet-24, Pet-43, Pet-59, Pet-147, Pet-152 and Pet-154, and glyceryltrinitrate (GTN), according to the procedure described in Feelich et al., Molecular Pharmacology, 56:243-253 (1999), The vehicle, which was used for this experiment was water:ethanol:propyleneglycol at proportional ratio of 1:1:1.
The vasorelaxing effect of the thiazole-derived NO-donors according to the present invention was measured on slices of thoracic aorta of rats contracted with epinephrine, as described hereinabove.

[3] = tested on: isolated rat aorta; test: In vitro induction of tolerance and cross-tolerance: vasorelaxation of pre-exposed rat aortic rings; format: cell-based; settings: in words; for tolerance induction in vitro: rings pre-treated with epinephrine and then with the same compound (0.44 mM) versus control
Protocol: Aortic rings were prepared as described hereinabove, and were exposed to 0.44 mM GTN (vehicle was water:ethanol:propyleneglycol at proportional ratio of 1:1:1) for 1 hour before CCRC construction, to thereby induce tolerance to nitroglycerine. At the end of the tolerance induction period, rings were thrice washed with the path buffer (Krebs-bicrbonate) every 15 minutes for the following hour and then CCRC for vasorelaxation on GTN-induced tolerance rings were constructed for GTN (pretreated versus untreated rings, FIG. 15), in order to verify the ability to induce and measure GTN tolerance induction in vitro Attempted induction of tolerance to the NO-donating compounds of the present invention was performed under the same conditions as for GTN. Thus, in an exemplary experiment, rings were exposed to 0.44 mM solution of Pet-3 in the attempt to induce tolerance for Pet-3. CCRC were then measured for the vasorelaxing effect of Pet-3 on a group of rings which were pre-exposed to Pet-3 as to induce tolerance to Pet-3, and for an untreated control group. The above protocol was repeated with Pet-2, Pet-7, Pet-8, Pet-12, Pet-24, Pet-43, Pet-149 and Pet-152.
Cross-tolerance studies were conducted using the same technique described above for measuring vasorelaxation of aortic rings from rats. Two groups of aortic rings samples were pre-treated with GTN, then one group was measured for vasorelaxation by GTN and the second group for vasorelaxation by Pet-12, an exemplary NO-donor according to the present invention. For the opposite cross-tolerance studies, two groups of aortic rings samples were pre-treated with Pet-12, then one group was measured for vasorelaxation by GTN and the second group for vasorelaxation by Pet-12.

[4] = tested on: cyclic-GMP in isolated aorta of rats pre-treated in vivo; test: Induction of in vivo nitrate tolerance: cGMP in aorta of rats infused for 16 hours; design: species or system rat; settings: rats infused 200 μg/hour for 16 hours, aorta then exposed to 1 μM; in words
Protocol: For c-GMP levels and tolerance development, the rat's thoracic aorta was isolated after exposure to the tested compound in vivo, and measured as described above in the in vitro assays.
Male Sprague Dawley rats (220 to 250 grams) were housed under constant temperature and humidity conditions. Light was maintained at a 12/12 light dark cycle. Except for 12 hours before the experiment, when food fasting was initiated, all rats had free access to standard rat pellet diet and tap water. The animals were anesthetized by intraperitoneal injection of ketamine and xylazine combination (50 and 10 milligram per kilogram, respectively). […] The catheters were filled with normal saline solution containing 1000 IU/ml of heparin and plugged with a metal pin. Catheters were externalized to the back of the neck region and secured by a polyester felt disk.
After implantation, the rats were individually housed until they regained their preoperative weight and appeared healthy (3 to 4 days post-operation). At this time point (day 0), an osmotic mini-pump (Alza Corp., Palo Alto, Calif.) delivering constant volume (10 μl/hour) of vehicle or drug was connected to one of the intravenous catheters.
For inducing tolerance to the tested NO-donor according to the present invention, the animals received 200 μg/hour of the tested compound for 16 hours (short-term-induced tolerance). […]

Compound	levels of cGMP as compared with GTN [1]	vasorelaxation effect as compared with glyceryltrinitrate [2]	tolerance induction in vitro [3]	further results
Cc1nc(N)sc1CCO[N+](=O)[O-] [Pet-10, 4-methyl-5-(2-nitrooxy-ethyl)-thiazole-2-ylamine]	increased levels of cGMP			
CCNc1nc(C)c(CCO[N+](=O)[O-])s1 [Pet-147, Ethyl-[4-methyl-5-(2-nitrooxy-ethyl)-thiazol-2-yl]-amine]	increased levels of cGMP			
Cc1nc(-c2ccccc2)sc1CCO[N+](=O)[O-] [Pet-8, 4-Methyl-5-(2-nitrooxy-ethyl)-2-phenyl-thiazole]	increased levels of cGMP	superior vasorelaxation effect		
Cc1nc(NC(=O)c2cccnc2)sc1CCO[N+](=O)[O-] [Pet-154, N-[4-methyl-5-(2-nitrooxy-ethyl)-thiazol-2-yl]-nicotinamide]	increased levels of cGMP			
Cc1nc(Nc2nc(C)c(CCO[N+](=O)[O-])s2)sc1CCO[N+](=O)[O-] [Pet-43, Bis-[4-methyl-5-(2-nitrooxy-ethyl)-thiazol-2-yl]-amine]		superior vasorelaxation effect	absence of tolerance induction	
Cc1nc(Nc2cccc3ccccc23)sc1CCO[N+](=O)[O-] [Pet-149, [4-Methyl-5-(2-nitrooxy-ethyl)-thiazol-2-yl]-naphthalen-1-yl-amine]	increased levels of cGMP	superior vasorelaxation effect	absence of tolerance induction	
Cc1nc(N(C)C)sc1CCO[N+](=O)[O-] [Pet-7, Dimethyl-[4-methyl-5-(2-nitrooxy-ethyl)-thiazol-2-yl]-amine]	increased levels of cGMP	superior	absence of tolerance induction	vasorelaxation effect, fold higher than glyceryltrinitrate [2]: 10 fold
Cc1nc(-c2cccnc2)sc1CCO[N+](=O)[O-] [Pet-12, 3-[4-Methyl-5-(2-nitrooxy-ethyl)-thiazole-2-yl]-pyridine]			absence of tolerance induction	cross-tolerance: vasorelaxation in rings pre-treated with GTN ([3]; rat aortic rings pre-treated with epinephrine and then with GTN): absence of tolerance induction effect; also recorded: no effect; cross-tolerance: vasorelaxation in rings pre-treated with Pet-12 ([3]; rat aortic rings pre-treated with epinephrine and then with Pet-12): absence of tolerance induction effect; also recorded: does not evoke tolerance to itself not to GTN; level of cGMP following a repeated treatment in vivo (tolerance induction) [4]: absence of tolerance induction; also recorded: lack of tolerance induction
Cc1nc(C)c(CCO[N+](=O)[O-])s1 [Pet-3, 2,4-Dimethyl-5-(2-nitrooxy-ethyl)-thiazole]	increased levels of cGMP	superior vasorelaxation effect	absence of tolerance induction	
CNc1cncc(-c2nc(C)c(CCO[N+](=O)[O-])s2)n1 [Pet-24, Methyl-{6-[4-methyl-5-(2-nitrooxy-ethyl)-thiazol-2-yl]-pyrazin-2-yl}-amine]	increased levels of cGMP		absence of tolerance induction	
Cc1nc(-c2ccc(C(F)(F)F)cc2)sc1CCO[N+](=O)[O-] [Pet-59, 4-Methyl-5-(2-nitrooxy-ethyl)-2-(4-trifluoromethyl-phenyl)-thiazole]	increased levels of cGMP	superior vasorelaxation effect		
C=CCNc1nc(C)c(CCO[N+](=O)[O-])s1 [Pet-155, allyl-[4-methyl-5-(2-nitrooxy-ethyl)-thiazol-2-yl]-amine]	increased levels of cGMP	superior vasorelaxation effect		
Cc1nc(NC(=O)[C@@H](C)c2ccc(CC(C)C)cc2)sc1CCO[N+](=O)[O-] (stereo in doubt) [Pet-152, 2-(4-Isobutyl-phenyl)-N-[4-methyl-5-(2-nitrooxy-ethyl)-thiazol-2-yl]-propionamide]	increased levels of cGMP	superior vasorelaxation effect		
